Results as given in publication doi:10.1101/2025.08.17.668569v1 (bioRxiv, 2025).
Ends that are not written are not given here.

What was measured:
Solubility in water = format: physicochemical
[1] = system: 4T1 murine triple-negative breast cancer cells; experiment: LDH assay; format: cell-based
[2] = system: CT26 murine colon carcinoma cells; experiment: LDH assay, CT26 cells; format: cell-based; conditions: read-out: EC50 CT26, Fig. 2A, 2 h, representative of N = 3
SUM149 cells = experiment: LDH assay, SUM149 cells; format: cell-based, human; conditions: read-out: EC50 SUM149, Fig. 2B, 2 h, representative of N = 3
[3] = system: Panc10.05 human pancreatic cancer cells; experiment: LDH assay, Panc10.05 cells; format: cell-based; conditions: read-out: EC50 Panc10.05, Fig. 2B, 2 h, representative of N = 3
[4] = system: HT-29 human colorectal cancer cells; experiment: LDH assay, HT-29 cells; format: cell-based; conditions: read-out: EC50 HT-29, Fig. 2B, 2 h, representative of N = 3
[5] = system: HepG2 human liver cancer cells; experiment: LDH assay, HepG2 cells; format: cell-based; conditions: read-out: EC50 HepG2, Fig. 2B, 2 h, representative of N = 3
[6] = system: MCA205 murine fibrosarcoma cells; experiment: LDH assay, MCA205 cells; format: cell-based; conditions: read-out: EC50 MCA205, Fig. 2A, 2 h, representative of N = 3
[7] = system: human melanoma cell line LOX IMVI; experiment: NCI-60 screen, LOX IMVI; format: cell-based; conditions: 48 h, SRB
[8] = system: U2OS human osteosarcoma cells; experiment: LDH assay, U2OS cells; format: cell-based; conditions: read-out: EC50 U2OS, Fig. 2B, 2 h, representative of N = 3
[9] = system: NCI-60 human tumor cell lines (59 cancer cell lines); conditions: 48 h
[10] = system: B16-F10 murine melanoma cells; experiment: LDH assay, B16-F10 cells; format: cell-based; conditions: read-out: EC50 B16-F10, Fig. 2A, 2 h, representative of N = 3
[11] = Half-life in murine serum; format: in vitro ADME; conditions: mouse
CT26 tumors = experiment: Tumor growth, CT26 murine colorectal model; format: in vivo, BALB/c mice; conditions: intratumoral NF27
[12] = system: CT2A murine glioblastoma cells; experiment: LDH assay, CT2A cells; format: cell-based; conditions: read-out: EC50 CT2A, Fig. 2A, 2 h, representative of N = 3

NGRKACLNPASIVKKIIKKILKI [NF11]
solubility in water (Solubility in water; lyophilized powder in water): formed a hard gel in water

NGRKAKKNAKKVKKIIKKIKKI-NH2 [NF22]
oncolytic activity (LDH release) ([1]; initial screen, 4T1 cells): no detectable oncolytic activity

NGRKAKLNPASIVKKIIKKILKS-NH2 [NF27]
EC50 [2]: 4.4 µM | EC50 (SUM149 cells): 6.6 µM | EC50 [3]: 21.3 µM | EC50 [4]: 24 µM | EC50 ([1]; read-out: EC50 4T1, Fig. 2A, LDH assay, 2 h, representative of N = 3): 12 µM | EC50 [5]: 27.7 µM | EC50 [6]: 10.5 µM | GI50 [7]: 26.3 µM | EC50 [8]: 11.5 µM | GI50 [9]: < 10 µM | EC50 [10]: 10.9 µM | half-life [11]: 29 min | side effects in murine tumor models (CT26 tumors): no observable side effects | EC50 [12]: 14.7 µM | solubility (Solubility in water; water): ≥ 40 mM
